In patent US9738634B2, “Heterocyclic amide compound and herbicide” (SYNGENTA PARTICIPATIONS AG, priority 2013, dated 2017):

Legend:
Assay type in all cases: in vivo
[1] = system: Italian ryegrass; assay: Test Example 3: weedkilling efficacy through soil treatment; I: Italian ryegrass; conditions: treatment dosage 315 g/ha
In short: (§1)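 Crop and weed responses were judged three weeks after a uniform surface spray of the water-diluted emulsion at the given g/ha rate. Seeds sat beneath about 1.5 cm of sterilized diluvial soil, and boxes stood in a greenhouse at 25 to 30° C.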

[2] = system: transplanted rice; assay: Test Example 1: preemergent weed treatment in the submerged state, effect on crop; a: transplanted rice; conditions: treatment dosage 252 g/ha
In short: (§2)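 Submerged pre-emergence treatment, water-surface application of compound emulsion at g/ha dosages; 4 cm flooded alluvial soil, weeds sown and 2.5-leaf rice transplanted same day. Rated after 3 weeks, greenhouse.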

[3] = system: corn; assay: Test Example 4: foliar treatment, effect on crop; c: corn; conditions: treatment dosage 315 g/ha
In short: (§3)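 Seeds are spot-sown into sterilized diluvial soil and covered with about 1.5 cm of soil. After 14 days' greenhouse growth at 25 to 30° C, plants are sprayed on stems and leaves with diluted emulsion at the stated g/ha rate, then scored at 3 weeks.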

[4] = system: birds-eye speedwell; assay: Test Example 3: weedkilling efficacy through soil treatment; p: birds-eye speedwell; conditions: treatment dosage 315 g/ha
In short: as §1

[5] = system: wild oat; assay: Test Example 4: weedkilling efficacy by foliar treatment; G: wild oat; conditions: treatment dosage 315 g/ha
In short: as §3

[6] = system: wheat; assay: Test Example 3: soil treatment, effect on crop; e: wheat; conditions: treatment dosage 315 g/ha
In short: as §1

[7] = system: wheat; assay: Test Example 4: foliar treatment, effect on crop; e: wheat; conditions: treatment dosage 315 g/ha
In short: as §3

[8] = system: birds-eye speedwell; assay: Test Example 4: weedkilling efficacy by foliar treatment; p: birds-eye speedwell; conditions: treatment dosage 315 g/ha
In short: as §3

[9] = system: common wind-grass; assay: Test Example 4: weedkilling efficacy by foliar treatment; J: common wind-grass; conditions: treatment dosage 315 g/ha
In short: as §3

[10] = system: barnyard grass; assay: Test Example 4: weedkilling efficacy by foliar treatment; F: barnyard grass; conditions: treatment dosage 315 g/ha
In short: as §3

[11] = system: directly sown rice; assay: Test Example 3: soil treatment, effect on crop; b: directly sown rice; conditions: treatment dosage 315 g/ha
In short: as §1

[12] = system: soybean; assay: Test Example 4: foliar treatment, effect on crop; d: soybean; conditions: treatment dosage 315 g/ha
In short: as §3

[13] = system: wild oat; assay: Test Example 3: weedkilling efficacy through soil treatment; G: wild oat; conditions: treatment dosage 315 g/ha
In short: as §1

[14] = system: beet; assay: Test Example 4: foliar treatment, effect on crop; f: beet; conditions: treatment dosage 315 g/ha
In short: as §3

[15] = system: catchweed; assay: Test Example 3: weedkilling efficacy through soil treatment; O: catchweed; conditions: treatment dosage 315 g/ha
In short: as §1

[16] = system: beet; assay: Test Example 3: soil treatment, effect on crop; f: beet; conditions: treatment dosage 315 g/ha
In short: as §1

[17] = system: catchweed; assay: Test Example 4: weedkilling efficacy by foliar treatment; O: catchweed; conditions: treatment dosage 315 g/ha
In short: as §3

[18] = system: common wind-grass; assay: Test Example 3: weedkilling efficacy through soil treatment; J: common wind-grass; conditions: treatment dosage 315 g/ha
In short: as §1

[19] = system: rapeseed; assay: Test Example 4: foliar treatment, effect on crop; g: rapeseed; conditions: treatment dosage 315 g/ha
In short: as §3

[20] = system: crabgrass; assay: Test Example 3: weedkilling efficacy through soil treatment; D: crabgrass; conditions: treatment dosage 315 g/ha
In short: as §1

[21] = system: bulrush; assay: Test Example 2: weedkilling efficacy, growth period weed treatment in the submerged state; B: bulrush; conditions: treatment dosage 252 g/ha
In short: (§4)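 Seedlings at 1-2 leaves in 4 cm-deep submerged alluvial soil received emulsion formulations on the water surface, dosed per hectare; effects were judged 3 weeks on.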

[22] = system: directly sown rice; assay: Test Example 4: foliar treatment, effect on crop; b: directly sown rice; conditions: treatment dosage 315 g/ha
In short: as §3

[23] = system: Indian mallow; assay: Test Example 3: weedkilling efficacy through soil treatment; K: Indian mallow; conditions: treatment dosage 315 g/ha
In short: as §1

[24] = system: black-grass; assay: Test Example 4: weedkilling efficacy by foliar treatment; H: black-grass; conditions: treatment dosage 315 g/ha
In short: as §3

[25] = system: black-grass; assay: Test Example 3: weedkilling efficacy through soil treatment; H: black-grass; conditions: treatment dosage 315 g/ha
In short: as §1

[26] = system: Italian ryegrass; assay: Test Example 4: weedkilling efficacy by foliar treatment; I: Italian ryegrass; conditions: treatment dosage 315 g/ha
In short: as §3

[27] = system: redroot pigweed; assay: Test Example 3: weedkilling efficacy through soil treatment; L: redroot pigweed; conditions: treatment dosage 315 g/ha
In short: as §1

[28] = system: oval-leafed pondweed; assay: Test Example 1: weedkilling efficacy, preemergent weed treatment in the submerged state; C: oval-leafed pondweed; conditions: treatment dosage 252 g/ha
In short: as §2

[29] = system: corn; assay: Test Example 3: soil treatment, effect on crop; c: corn; conditions: treatment dosage 315 g/ha
In short: as §1

[30] = system: green foxtail; assay: Test Example 4: weedkilling efficacy by foliar treatment; E: green foxtail; conditions: treatment dosage 315 g/ha
In short: as §3

[31] = system: barnyard grass; assay: Test Example 2: weedkilling efficacy, growth period weed treatment in the submerged state; A: barnyard grass; conditions: treatment dosage 252 g/ha
In short: as §4

[32] = system: chickweed; assay: Test Example 4: weedkilling efficacy by foliar treatment; N: chickweed; conditions: treatment dosage 315 g/ha
In short: as §3

[33] = system: bulrush; assay: Test Example 1: weedkilling efficacy, preemergent weed treatment in the submerged state; B: bulrush; conditions: treatment dosage 252 g/ha
In short: as §2

[34] = system: redroot pigweed; assay: Test Example 4: weedkilling efficacy by foliar treatment; L: redroot pigweed; conditions: treatment dosage 315 g/ha
In short: as §3

[35] = system: barnyard grass; assay: Test Example 3: weedkilling efficacy through soil treatment; F: barnyard grass; conditions: treatment dosage 315 g/ha
In short: as §1

[36] = system: barnyard grass; assay: Test Example 1: weedkilling efficacy, preemergent weed treatment in the submerged state; A: barnyard grass; conditions: treatment dosage 252 g/ha
In short: as §2

[37] = system: crabgrass; assay: Test Example 4: weedkilling efficacy by foliar treatment; D: crabgrass; conditions: treatment dosage 315 g/ha
In short: as §3

[38] = system: oval-leafed pondweed; assay: Test Example 2: weedkilling efficacy, growth period weed treatment in the submerged state; C: oval-leafed pondweed; conditions: treatment dosage 252 g/ha
In short: as §4

[39] = system: green foxtail; assay: Test Example 3: weedkilling efficacy through soil treatment; E: green foxtail; conditions: treatment dosage 315 g/ha
In short: as §1

[40] = system: rapeseed; assay: Test Example 3: soil treatment, effect on crop; g: rapeseed; conditions: treatment dosage 315 g/ha
In short: as §1

[41] = system: soybean; assay: Test Example 3: soil treatment, effect on crop; d: soybean; conditions: treatment dosage 315 g/ha
In short: as §1

[42] = system: Indian mallow; assay: Test Example 4: weedkilling efficacy by foliar treatment; K: Indian mallow; conditions: treatment dosage 315 g/ha
In short: as §3

[43] = system: chickweed; assay: Test Example 3: weedkilling efficacy through soil treatment; N: chickweed; conditions: treatment dosage 315 g/ha
In short: as §1

SMILES: CC1=C(c2ccccc2)C(=O)N(C(C)(C)C(=O)Nc2cc(F)cc(F)n2)CO1 [B-2-33]
- I (Italian ryegrass) weedkilling efficacy grade [1]: 5 (weed kill ratio 90% or more, (practically complete withering))
- a (transplanted rice) effect on crop grade [2]: 3 (weed kill ratio 40% or more, less than 70%)
- c (corn) effect on crop grade [3]: 3 (weed kill ratio 40% or more, less than 70%)
- P (birds-eye speedwell) weedkilling efficacy grade [4]: 5 (weed kill ratio 90% or more, (practically complete withering))
- G (wild oat) weedkilling efficacy grade [5]: 5 (weed kill ratio 90% or more, (practically complete withering))
- e (wheat) effect on crop grade [6]: 5 (weed kill ratio 90% or more, (practically complete withering))
- e (wheat) effect on crop grade [7]: 4 (weed kill ratio 70% or more, less than 90%)
- P (birds-eye speedwell) weedkilling efficacy grade [8]: 5 (weed kill ratio 90% or more, (practically complete withering))
- J (common wind-grass) weedkilling efficacy grade [9]: 5 (weed kill ratio 90% or more, (practically complete withering))
- F (barnyard grass) weedkilling efficacy grade [10]: 5 (weed kill ratio 90% or more, (practically complete withering))
- b (directly sown rice) effect on crop grade [11]: 5 (weed kill ratio 90% or more, (practically complete withering))
- d (soybean) effect on crop grade [12]: 4 (weed kill ratio 70% or more, less than 90%)
- G (wild oat) weedkilling efficacy grade [13]: 5 (weed kill ratio 90% or more, (practically complete withering))
- f (beet) effect on crop grade [14]: 4 (weed kill ratio 70% or more, less than 90%)
- O (catchweed) weedkilling efficacy grade [15]: 5 (weed kill ratio 90% or more, (practically complete withering))
- f (beet) effect on crop grade [16]: 1 (weed kill ratio 5% or more, less than 20%)
- O (catchweed) weedkilling efficacy grade [17]: 5 (weed kill ratio 90% or more, (practically complete withering))
- J (common wind-grass) weedkilling efficacy grade [18]: 5 (weed kill ratio 90% or more, (practically complete withering))
- g (rapeseed) effect on crop grade [19]: 4 (weed kill ratio 70% or more, less than 90%)
- D (crabgrass) weedkilling efficacy grade [20]: 5 (weed kill ratio 90% or more, (practically complete withering))
- B (bulrush) weedkilling efficacy grade [21]: 5 (weed kill ratio 90% or more, (practically complete withering))
- b (directly sown rice) effect on crop grade [22]: 5 (weed kill ratio 90% or more, (practically complete withering))
- K (Indian mallow) weedkilling efficacy grade [23]: 5 (weed kill ratio 90% or more, (practically complete withering))
- H (black-grass) weedkilling efficacy grade [24]: 5 (weed kill ratio 90% or more, (practically complete withering))
- H (black-grass) weedkilling efficacy grade [25]: 5 (weed kill ratio 90% or more, (practically complete withering))
- I (Italian ryegrass) weedkilling efficacy grade [26]: 5 (weed kill ratio 90% or more, (practically complete withering))
- L (redroot pigweed) weedkilling efficacy grade [27]: 4 (weed kill ratio 70% or more, less than 90%)
- C (oval-leafed pondweed) weedkilling efficacy grade [28]: 5 (weed kill ratio 90% or more, (practically complete withering))
- c (corn) effect on crop grade [29]: 3 (weed kill ratio 40% or more, less than 70%)
- E (green foxtail) weedkilling efficacy grade [30]: 5 (weed kill ratio 90% or more, (practically complete withering))
- A (barnyard grass) weedkilling efficacy grade [31]: 5 (weed kill ratio 90% or more, (practically complete withering))
- N (chickweed) weedkilling efficacy grade [32]: 4 (weed kill ratio 70% or more, less than 90%)
- B (bulrush) weedkilling efficacy grade [33]: 5 (weed kill ratio 90% or more, (practically complete withering))
- L (redroot pigweed) weedkilling efficacy grade [34]: 4 (weed kill ratio 70% or more, less than 90%)
- F (barnyard grass) weedkilling efficacy grade [35]: 5 (weed kill ratio 90% or more, (practically complete withering))
- A (barnyard grass) weedkilling efficacy grade [36]: 5 (weed kill ratio 90% or more, (practically complete withering))
- D (crabgrass) weedkilling efficacy grade [37]: 5 (weed kill ratio 90% or more, (practically complete withering))
- C (oval-leafed pondweed) weedkilling efficacy grade [38]: 5 (weed kill ratio 90% or more, (practically complete withering))
- E (green foxtail) weedkilling efficacy grade [39]: 5 (weed kill ratio 90% or more, (practically complete withering))
- g (rapeseed) effect on crop grade [40]: 5 (weed kill ratio 90% or more, (practically complete withering))
- d (soybean) effect on crop grade [41]: 4 (weed kill ratio 70% or more, less than 90%)
- K (Indian mallow) weedkilling efficacy grade [42]: 4 (weed kill ratio 70% or more, less than 90%)
- N (chickweed) weedkilling efficacy grade [43]: 4 (weed kill ratio 70% or more, less than 90%)
